Experimental data published in ChEMBL document CHEMBL3792379, “Synthesis and biological evaluation of aryloxyacetamide derivatives as neuroprotective agents” (2016).
Calls of active or inactive are those of the source. The calls are words filed in the database; no cut-off is given here.

Key:
[1] = (§1) Neuroprotective activity against glutamate-induced cell death in rat PC12 cells assessed as cell viability at 0.1 uM after 24 hrs by MTT assay; format: functional; conditions: PC-12, 24 h, read-out: Activity
[2] = (§2) Neuroprotective activity against glutamate-induced cell death in rat PC12 cells assessed as cell viability at 1 uM after 24 hrs by MTT assay; format: functional; conditions: PC-12, 24 h, read-out: Activity
[3] = (§3) Neuroprotective activity against glutamate-induced cell death in rat PC12 cells assessed as cell viability at 10 uM after 24 hrs by MTT assay; format: functional; conditions: PC-12, 24 h, read-out: Activity
PC-12 [4] = assay: as §1; format: functional
PC-12 [5] = assay: as §2; format: functional
PC-12 [6] = assay: as §3; format: functional
[7] = Neuroprotective activity against glutamate-induced cell death in rat PC12 cells assessed as cell viability at 90 uM after 24 hrs by MTT assay; format: functional; conditions: PC-12, 24 h, read-out: Activity
PC-12 [8] = assay: Neuroprotective activity against glutamate-induced apoptosis in rat PC12 cells at 0.1 uM after 24 hrs by hoechst 33342 and propidium iodide double staining based fluorescence analysis (reference value: 43.97 +/- 2.69%); format: functional
PC-12 [9] = assay: Neuroprotective activity against glutamate-induced apoptosis in rat PC12 cells at 1 uM after 24 hrs by hoechst 33342 and propidium iodide double staining based fluorescence analysis (reference value: 43.97 +/- 2.69%); format: functional
PC-12 [10] = assay: Neuroprotective activity against glutamate-induced apoptosis in rat PC12 cells at 10 uM after 24 hrs by hoechst 33342 and propidium iodide double staining based fluorescence analysis (reference value: 43.97 +/- 2.69%); format: functional
PC-12 [11] = assay: Neuroprotective activity against glutamate-induced apoptosis in rat PC12 cells after 24 hrs by hoechst 33342 and propidium iodide double staining based fluorescence analysis; format: functional, cell-based
PC-12 [12] = assay: Neuroprotective activity against glutamate-induced cell death in rat PC12 cells assessed as cell viability after 24 hrs by MTT assay; format: functional, cell-based
PC-12 [13] = assay: Neuroprotective activity against glutamate-induced apoptosis in rat PC12 cells assessed as decrease in procaspase-3 level after 24 hrs by western blot analysis; format: functional, cell-based
PC-12 [14] = assay: Neuroprotective activity against glutamate-induced apoptosis in rat PC12 cells assessed as decrease in caspase-3 level after 24 hrs by western blot analysis; format: functional, cell-based
PC-12 [15] = assay: Neuroprotective activity against glutamate-induced apoptosis in rat PC12 cells assessed as procaspase-3 level at 0.1 to 10 uM after 24 hrs by western blot analysis; format: functional, cell-based

| SMILES | viability at 0.1 µM [1] [%] | viability at 1 µM [2] [%] | viability at 10 µM [3] [%] | also measured |
| --- | --- | --- | --- | --- |
| COC(=O)c1ccccc1CN1CCN(C(=O)COc2ccccc2C)CC1 | 6.39 | 9.55 | 25.1 |  |
| CCOc1ccc(CN2CCN(C(=O)COc3ccccc3C)CC2)cc1 | 35.3 | 30.6 | 28.9 |  |
| COc1ccccc1OCC(=O)N1CCN(Cc2ccc(Br)cc2)CC1 | 38 | 41 | 20.8 |  |
| COC(=O)c1ccccc1CN1CCN(C(=O)COc2ccc(Br)cc2)CC1 |  |  |  | Activity (PC-12 [4]): inactive; Activity (PC-12 [5]): inactive; Activity (PC-12 [6]): inactive |
| COc1ccccc1OCC(=O)N1CCN(C(c2ccc(C)cc2)c2ccc(C)cc2)CC1 |  |  |  | Activity (PC-12 [4]): inactive; Activity (PC-12 [5]): inactive; Activity (PC-12 [6]): inactive |
| O=C(COc1ccc(Br)cc1)N1CCN(C(c2ccc(Br)cc2)c2ccc(Br)cc2)CC1 |  |  |  | Activity (PC-12 [4]): inactive; Activity (PC-12 [5]): inactive; Activity (PC-12 [6]): inactive |
| COc1ccc(/C=C/C(=O)N2CCN(C(c3ccc(F)cc3)c3ccc(F)cc3)CC2)cc1 | 71 | 49.7 | 77.8 |  |
| COc1ccc(OCC(=O)N2CCN(C(c3ccc(C)cc3)c3ccc(C)cc3)CC2)cc1 | 21.7 | 42.3 | 47.5 |  |
| O=C(COc1ccc(Cl)cc1)N1CCN(C(c2ccc(Br)cc2)c2ccc(Br)cc2)CC1 | 4.22 | 8.01 | 16.7 |  |
| COC(=O)c1ccccc1CN1CCN(C(=O)COc2ccc(Cl)cc2)CC1 | 39.9 | 5.15 | 6.36 |  |
| Cc1ccccc1OCC(=O)N1CCN(Cc2ccc(Br)cc2)CC1 | 10.2 | 22.1 | 20.8 |  |
| COc1ccc(C(c2ccc(OC)cc2)N2CCN(C(=O)COc3ccccc3C)CC2)cc1 | 2.45 | 3.75 | 21.2 |  |
| COc1ccc(OCC(=O)N2CCN(C(c3ccc(F)cc3)c3ccc(F)cc3)CC2)cc1 | 3.1 | 5.26 | 80.5 |  |
| CC1=NN(c2ccccc2)C(=O)C1 [EDARAVONE] |  |  |  | viability at 90 µM [7]: 33% |
| O=C(COc1ccc(Br)cc1)N1CCN(Cc2ccc(Br)cc2)CC1 |  |  |  | Activity (PC-12 [4]): inactive; Activity (PC-12 [5]): inactive; Activity (PC-12 [6]): inactive |
| O=C(COc1ccc2ccccc2c1)N1CCN(C(c2ccc(F)cc2)c2ccc(F)cc2)CC1 |  |  |  | Activity (PC-12 [4]): inactive; Activity (PC-12 [5]): inactive; Activity (PC-12 [6]): inactive |
| COc1ccccc1OCC(=O)N1CCN(C(c2ccc(F)cc2)c2ccc(F)cc2)CC1 | 32 | 45.9 | 79.7 | Activity (PC-12 [8]): 42.28%; Activity (PC-12 [9]): 31.04%; Activity (PC-12 [10]): 19.18%; Activity (PC-12 [11]): Dose-dependent effect; Activity (PC-12 [12]): Dose-dependent effect; Activity (PC-12 [13]): Dose-dependent effect; Activity (PC-12 [14]): Dose-dependent effect |

| SMILES | viability at 0.1 µM [1] [%] | viability at 1 µM [2] [%] | viability at 10 µM [3] [%] | also measured |
| --- | --- | --- | --- | --- |
| COC(=O)c1ccccc1CN1CCN(C(=O)COc2ccc(OC)cc2)CC1 |  |  |  | Activity (PC-12 [4]): inactive; Activity (PC-12 [5]): inactive; Activity (PC-12 [6]): inactive |
| COC(=O)c1ccccc1CN1CCN(C(=O)COc2ccc(C)cc2)CC1 |  |  |  | Activity (PC-12 [4]): inactive; Activity (PC-12 [5]): inactive; Activity (PC-12 [6]): inactive |
| Cc1ccc(C(c2ccc(C)cc2)N2CCN(C(=O)COc3ccc4ccccc4c3)CC2)cc1 | 4.75 | 5.63 | 10.3 |  |
| O=C(COc1ccc(Br)cc1)N1CCN(C(c2ccc(F)cc2)c2ccc(F)cc2)CC1 | 26.8 | 47.6 | 77.1 | Activity (PC-12 [8]): 41.83%; Activity (PC-12 [9]): 32.18%; Activity (PC-12 [10]): 24.65%; Activity (PC-12 [11]): Dose-dependent effect; Activity (PC-12 [12]): Dose-dependent effect; Activity (PC-12 [14]): Dose-dependent effect; Activity (PC-12 [15]): inactive |
| COc1ccc(C(c2ccc(OC)cc2)N2CCN(C(=O)COc3ccc4ccccc4c3)CC2)cc1 | 2.55 | 5.42 | 25.6 |  |
| CCOc1ccccc1CN1CCN(C(=O)COc2ccc3ccccc3c2)CC1 | 29.8 | 45.7 | 59.6 | Activity (PC-12 [8]): 35.09%; Activity (PC-12 [9]): 23.73%; Activity (PC-12 [10]): 16.21%; Activity (PC-12 [11]): Dose-dependent effect; Activity (PC-12 [12]): Dose-dependent effect; Activity (PC-12 [14]): Dose-dependent effect; Activity (PC-12 [15]): inactive |
| COc1ccc(OCC(=O)N2CCN(C(c3ccc(OC)cc3)c3ccc(OC)cc3)CC2)cc1 | 59.4 | 80.7 | 56.7 |  |
| COc1ccc(OCC(=O)N2CCN(C(c3ccc(Br)cc3)c3ccc(Br)cc3)CC2)cc1 | 3.52 | 7.06 | 50.3 |  |
| COc1ccccc1OCC(=O)N1CCN(C(c2ccc(Br)cc2)c2ccc(Br)cc2)CC1 | 45.5 | 12.8 | 6.67 |  |
| Cc1ccc(C(c2ccc(C)cc2)N2CCN(C(=O)COc3ccccc3C)CC2)cc1 | 3.24 | 4.24 | 11.3 |  |
| O=C(COc1ccc2ccccc2c1)N1CCN(C(c2ccc(Br)cc2)c2ccc(Br)cc2)CC1 | 4.06 | 7.87 | 30.2 |  |
| Cc1ccccc1OCC(=O)N1CCN(C(c2ccc(F)cc2)c2ccc(F)cc2)CC1 | 7.92 | 8.7 | 57 |  |
| COC(=O)c1ccccc1CN1CCN(C(=O)COc2ccc3ccccc3c2)CC1 | 25.6 | 37.4 | 49.5 | Activity (PC-12 [8]): 35.67%; Activity (PC-12 [9]): 29.27%; Activity (PC-12 [10]): 21.81%; Activity (PC-12 [11]): Dose-dependent effect; Activity (PC-12 [12]): Dose-dependent effect; Activity (PC-12 [13]): Dose-dependent effect; Activity (PC-12 [14]): Dose-dependent effect |
| Cc1ccccc1OCC(=O)N1CCN(C(c2ccc(Br)cc2)c2ccc(Br)cc2)CC1 |  |  |  | Activity (PC-12 [4]): inactive; Activity (PC-12 [5]): inactive; Activity (PC-12 [6]): inactive |
| CCOc1ccccc1CN1CCN(C(=O)COc2ccccc2C)CC1 | 53.3 | 11.9 | 8.52 |  |
| COC(=O)c1ccccc1CN1CCN(C(=O)COc2ccccc2OC)CC1 | 23.2 | 32.8 | 23.1 |  |
| Cc1ccc(C(c2ccc(C)cc2)N2CCN(C(=O)COc3ccc(Cl)cc3)CC2)cc1 | 5.81 | 9.14 | 9.2 |  |
